According to patent US10670605B2, “Cysteine reactive probes and uses thereof” (The Scripps Research Institute, priority 2015, dated 2020):
One block for each molecule: values may come before it.

Tests used:
Experiment in all cases: Competitive isoTOP-ABPP in situ (fragment-treated cells)
Assay type in all cases: cell-based
[1] = target: cysteines in MDA-MB-231 and Ramos cells (Homo sapiens, UniProt Q93009)
[2] = target: T1, cysteines in MDA-MB-231 and Ramos cells (Homo sapiens, UniProt P11216)
T1 sequence (P11216 1-843): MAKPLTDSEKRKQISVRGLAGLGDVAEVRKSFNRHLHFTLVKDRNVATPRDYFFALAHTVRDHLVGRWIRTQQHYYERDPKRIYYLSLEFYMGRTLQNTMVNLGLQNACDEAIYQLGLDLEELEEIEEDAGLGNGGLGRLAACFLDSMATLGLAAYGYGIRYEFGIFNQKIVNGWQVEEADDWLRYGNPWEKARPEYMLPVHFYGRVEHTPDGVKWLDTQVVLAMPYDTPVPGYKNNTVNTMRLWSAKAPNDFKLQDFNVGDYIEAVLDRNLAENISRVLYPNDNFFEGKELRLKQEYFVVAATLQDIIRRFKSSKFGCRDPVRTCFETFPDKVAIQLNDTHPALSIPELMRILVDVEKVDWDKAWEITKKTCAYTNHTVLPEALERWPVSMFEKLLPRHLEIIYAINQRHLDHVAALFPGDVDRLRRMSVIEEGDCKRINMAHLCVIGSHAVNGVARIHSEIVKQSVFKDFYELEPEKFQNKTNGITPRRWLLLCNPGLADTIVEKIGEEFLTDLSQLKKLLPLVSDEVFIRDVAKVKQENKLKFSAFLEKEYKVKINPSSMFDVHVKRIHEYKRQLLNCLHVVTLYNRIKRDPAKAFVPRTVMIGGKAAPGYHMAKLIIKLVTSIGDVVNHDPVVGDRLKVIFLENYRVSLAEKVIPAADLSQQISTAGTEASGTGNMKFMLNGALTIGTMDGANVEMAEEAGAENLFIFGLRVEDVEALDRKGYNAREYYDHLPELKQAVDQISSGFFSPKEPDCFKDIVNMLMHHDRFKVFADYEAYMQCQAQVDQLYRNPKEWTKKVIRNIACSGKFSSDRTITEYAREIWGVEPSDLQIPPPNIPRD

[3] = target: T2, cysteines in MDA-MB-231 and Ramos cells (Homo sapiens, UniProt P10599)
T2 sequence (P10599 1-105): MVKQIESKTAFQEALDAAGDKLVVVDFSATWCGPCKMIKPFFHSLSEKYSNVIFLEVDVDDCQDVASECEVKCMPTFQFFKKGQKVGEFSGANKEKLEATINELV

[4] = target: cysteines in MDA-MB-231 and Ramos cells (Homo sapiens, UniProt Q15021)
[5] = target: T3, cysteines in MDA-MB-231 and Ramos cells (Homo sapiens, UniProt Q9BTA9)
T3 sequence (Q9BTA9 1-647): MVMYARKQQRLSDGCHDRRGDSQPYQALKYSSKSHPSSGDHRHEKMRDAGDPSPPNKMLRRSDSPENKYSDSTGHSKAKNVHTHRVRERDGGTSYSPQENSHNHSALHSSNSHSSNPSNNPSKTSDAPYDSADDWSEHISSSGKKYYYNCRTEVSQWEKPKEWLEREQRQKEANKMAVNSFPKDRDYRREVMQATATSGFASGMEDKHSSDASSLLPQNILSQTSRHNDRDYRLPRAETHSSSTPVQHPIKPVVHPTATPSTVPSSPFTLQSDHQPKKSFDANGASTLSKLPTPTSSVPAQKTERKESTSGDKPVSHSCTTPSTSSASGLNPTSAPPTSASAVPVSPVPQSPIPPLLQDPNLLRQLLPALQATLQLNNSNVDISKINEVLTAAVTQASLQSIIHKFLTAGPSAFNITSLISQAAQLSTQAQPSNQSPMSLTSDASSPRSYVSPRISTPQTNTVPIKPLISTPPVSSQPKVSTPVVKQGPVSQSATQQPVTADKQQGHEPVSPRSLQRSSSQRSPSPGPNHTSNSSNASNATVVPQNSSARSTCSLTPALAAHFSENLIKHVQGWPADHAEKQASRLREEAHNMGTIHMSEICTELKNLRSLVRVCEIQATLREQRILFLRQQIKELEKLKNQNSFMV

[6] = target: T4, cysteines in MDA-MB-231 and Ramos cells (Homo sapiens, UniProt Q13162)
T4 sequence (Q13162 38-271): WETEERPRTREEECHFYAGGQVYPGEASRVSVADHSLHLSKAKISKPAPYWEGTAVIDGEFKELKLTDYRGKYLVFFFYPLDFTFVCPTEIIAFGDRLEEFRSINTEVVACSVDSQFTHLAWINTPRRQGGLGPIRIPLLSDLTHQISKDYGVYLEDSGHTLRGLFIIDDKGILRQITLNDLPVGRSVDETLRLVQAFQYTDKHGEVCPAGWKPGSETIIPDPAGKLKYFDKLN

[7] = target: T5, cysteines in MDA-MB-231 and Ramos cells (Homo sapiens, UniProt P04183)
T5 sequence (P04183 1-234): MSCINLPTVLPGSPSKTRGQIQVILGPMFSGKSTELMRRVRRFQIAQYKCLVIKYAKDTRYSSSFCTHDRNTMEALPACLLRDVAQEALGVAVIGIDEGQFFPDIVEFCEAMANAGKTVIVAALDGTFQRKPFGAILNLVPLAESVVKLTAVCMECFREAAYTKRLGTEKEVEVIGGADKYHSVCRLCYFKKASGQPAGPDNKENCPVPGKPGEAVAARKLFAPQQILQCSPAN

[8] = target: T6, cysteines in MDA-MB-231 and Ramos cells (Homo sapiens, UniProt Q99757)
T6 sequence (Q99757 60-166): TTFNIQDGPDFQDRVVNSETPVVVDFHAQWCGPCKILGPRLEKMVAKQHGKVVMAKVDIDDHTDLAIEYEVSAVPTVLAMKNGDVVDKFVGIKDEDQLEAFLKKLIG

[9] = target: cysteines in MDA-MB-231 and Ramos cells (Homo sapiens, UniProt Q13526)
[10] = target: cysteines in MDA-MB-231 and Ramos cells (Homo sapiens, UniProt Q9NYL2)
cysteines in MDA-MB-231 and Ramos cells (Homo sapiens, UniProt Q9NYL2), sequence (Q9NYL2 whole entry): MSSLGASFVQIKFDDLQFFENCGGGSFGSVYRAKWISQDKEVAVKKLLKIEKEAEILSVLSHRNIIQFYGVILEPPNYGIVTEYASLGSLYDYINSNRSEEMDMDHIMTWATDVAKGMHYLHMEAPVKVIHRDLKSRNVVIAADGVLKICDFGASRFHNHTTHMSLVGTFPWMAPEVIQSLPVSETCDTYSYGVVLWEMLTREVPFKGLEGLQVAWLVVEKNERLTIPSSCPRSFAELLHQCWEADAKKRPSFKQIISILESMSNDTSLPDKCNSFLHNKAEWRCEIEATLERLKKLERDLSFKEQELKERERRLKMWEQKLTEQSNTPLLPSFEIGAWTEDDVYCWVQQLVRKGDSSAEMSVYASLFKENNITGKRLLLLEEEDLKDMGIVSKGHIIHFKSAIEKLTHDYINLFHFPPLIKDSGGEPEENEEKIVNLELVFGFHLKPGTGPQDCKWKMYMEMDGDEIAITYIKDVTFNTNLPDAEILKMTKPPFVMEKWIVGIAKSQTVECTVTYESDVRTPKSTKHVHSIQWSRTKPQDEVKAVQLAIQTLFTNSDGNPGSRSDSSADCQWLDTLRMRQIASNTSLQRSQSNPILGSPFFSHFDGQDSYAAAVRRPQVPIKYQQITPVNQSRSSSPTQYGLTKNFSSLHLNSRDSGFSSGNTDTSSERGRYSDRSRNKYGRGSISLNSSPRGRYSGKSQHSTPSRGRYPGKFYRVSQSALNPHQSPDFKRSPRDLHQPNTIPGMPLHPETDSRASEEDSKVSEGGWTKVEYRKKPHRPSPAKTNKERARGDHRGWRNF

cysteines in MDA-MB-231 and Ramos cells (Homo sapiens, UniProt Q13526), sequence (Q13526 whole entry): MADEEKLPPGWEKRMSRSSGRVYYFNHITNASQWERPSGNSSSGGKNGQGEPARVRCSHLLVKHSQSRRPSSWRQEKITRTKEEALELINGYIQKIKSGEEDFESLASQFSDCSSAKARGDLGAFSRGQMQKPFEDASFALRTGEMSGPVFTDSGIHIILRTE
cysteines in MDA-MB-231 and Ramos cells (Homo sapiens, UniProt Q15021), sequence (Q15021 whole entry): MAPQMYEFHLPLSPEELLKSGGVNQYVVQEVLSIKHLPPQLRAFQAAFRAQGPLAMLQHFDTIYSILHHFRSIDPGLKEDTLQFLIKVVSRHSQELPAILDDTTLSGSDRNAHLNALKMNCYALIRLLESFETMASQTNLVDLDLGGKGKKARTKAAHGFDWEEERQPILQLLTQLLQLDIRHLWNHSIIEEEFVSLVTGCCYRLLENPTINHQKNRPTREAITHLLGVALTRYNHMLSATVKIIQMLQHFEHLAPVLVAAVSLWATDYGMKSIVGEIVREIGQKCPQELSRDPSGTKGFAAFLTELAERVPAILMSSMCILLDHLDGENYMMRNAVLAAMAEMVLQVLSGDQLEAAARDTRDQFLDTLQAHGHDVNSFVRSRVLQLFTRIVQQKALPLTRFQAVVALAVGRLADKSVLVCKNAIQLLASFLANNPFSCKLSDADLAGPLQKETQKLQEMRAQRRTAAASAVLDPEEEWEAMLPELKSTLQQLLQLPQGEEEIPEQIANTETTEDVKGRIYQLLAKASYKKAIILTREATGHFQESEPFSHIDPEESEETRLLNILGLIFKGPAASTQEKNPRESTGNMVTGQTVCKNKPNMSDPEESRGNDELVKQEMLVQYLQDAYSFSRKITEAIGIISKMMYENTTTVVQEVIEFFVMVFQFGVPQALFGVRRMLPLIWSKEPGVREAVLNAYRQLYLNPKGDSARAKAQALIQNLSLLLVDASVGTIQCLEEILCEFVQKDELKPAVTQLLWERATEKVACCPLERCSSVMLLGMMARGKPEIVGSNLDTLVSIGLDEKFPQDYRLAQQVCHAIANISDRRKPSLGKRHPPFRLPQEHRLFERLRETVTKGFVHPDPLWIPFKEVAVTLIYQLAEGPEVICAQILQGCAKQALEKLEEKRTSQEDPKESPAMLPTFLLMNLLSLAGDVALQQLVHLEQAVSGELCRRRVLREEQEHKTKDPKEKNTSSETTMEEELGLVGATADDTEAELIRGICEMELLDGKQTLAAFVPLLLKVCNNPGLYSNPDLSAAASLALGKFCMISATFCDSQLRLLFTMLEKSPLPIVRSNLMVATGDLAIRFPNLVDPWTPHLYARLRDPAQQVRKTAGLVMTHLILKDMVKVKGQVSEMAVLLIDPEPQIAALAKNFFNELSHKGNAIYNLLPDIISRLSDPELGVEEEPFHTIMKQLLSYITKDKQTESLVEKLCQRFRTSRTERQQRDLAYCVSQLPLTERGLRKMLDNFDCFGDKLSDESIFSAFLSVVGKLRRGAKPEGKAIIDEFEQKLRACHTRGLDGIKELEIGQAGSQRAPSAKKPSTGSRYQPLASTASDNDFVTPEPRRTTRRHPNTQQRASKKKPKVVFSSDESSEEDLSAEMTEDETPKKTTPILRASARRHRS
cysteines in MDA-MB-231 and Ramos cells (Homo sapiens, UniProt Q93009), sequence (Q93009 whole entry): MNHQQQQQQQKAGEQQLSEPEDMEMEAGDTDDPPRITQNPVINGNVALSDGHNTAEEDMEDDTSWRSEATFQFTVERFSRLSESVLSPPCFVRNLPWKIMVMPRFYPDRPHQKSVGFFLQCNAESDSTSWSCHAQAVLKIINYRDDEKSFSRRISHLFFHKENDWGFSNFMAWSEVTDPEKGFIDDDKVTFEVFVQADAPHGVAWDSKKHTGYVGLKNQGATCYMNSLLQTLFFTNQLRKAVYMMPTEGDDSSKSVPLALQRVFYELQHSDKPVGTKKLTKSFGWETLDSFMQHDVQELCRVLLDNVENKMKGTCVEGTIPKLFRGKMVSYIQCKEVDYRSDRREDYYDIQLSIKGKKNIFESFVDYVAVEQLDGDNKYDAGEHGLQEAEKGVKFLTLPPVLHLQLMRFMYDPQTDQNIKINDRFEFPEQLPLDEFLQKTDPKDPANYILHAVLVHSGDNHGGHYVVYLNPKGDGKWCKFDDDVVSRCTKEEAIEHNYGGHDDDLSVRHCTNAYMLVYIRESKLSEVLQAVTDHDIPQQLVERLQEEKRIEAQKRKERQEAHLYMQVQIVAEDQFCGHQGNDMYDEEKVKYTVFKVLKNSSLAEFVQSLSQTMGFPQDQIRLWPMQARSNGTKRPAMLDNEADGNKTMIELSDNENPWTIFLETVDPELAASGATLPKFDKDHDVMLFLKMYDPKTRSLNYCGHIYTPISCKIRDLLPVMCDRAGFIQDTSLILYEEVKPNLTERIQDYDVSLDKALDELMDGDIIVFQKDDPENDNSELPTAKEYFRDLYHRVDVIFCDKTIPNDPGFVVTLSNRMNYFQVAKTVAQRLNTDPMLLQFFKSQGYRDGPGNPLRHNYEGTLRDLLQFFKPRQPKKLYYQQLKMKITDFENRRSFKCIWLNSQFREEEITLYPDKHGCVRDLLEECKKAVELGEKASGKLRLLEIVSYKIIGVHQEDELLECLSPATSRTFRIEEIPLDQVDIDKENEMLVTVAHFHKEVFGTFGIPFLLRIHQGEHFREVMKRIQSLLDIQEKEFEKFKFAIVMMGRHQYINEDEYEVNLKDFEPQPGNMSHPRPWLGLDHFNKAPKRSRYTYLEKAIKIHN

isoTOP-ABPP reactivity Q93009_C223 USP7 ([1]; 100 μM in situ 231): 6.8 | isoTOP-ABPP reactivity P11216_C326 PYGB ([2]; 100 μM in situ 231): 1.7 | isoTOP-ABPP reactivity P10599_C32 TXN ([3]; 100 μM in situ 231): 3.3 | isoTOP-ABPP reactivity Q15021_C439 NCAPD2 ([4]; 100 μM in situ 231): 2.2 | isoTOP-ABPP reactivity Q9BTA9_0553 WAC ([5]; 100 μM in situ 231): 17.8 | isoTOP-ABPP reactivity Q13162_C51 PRDX4 ([6]; 100 μM in situ 231): 1.2 | isoTOP-ABPP reactivity P04183_C230 TK1 ([7]; 100 μM in situ 231): 0.8 | isoTOP-ABPP reactivity Q99757_C90 TXN2 ([8]; 100 μM in situ 231): 3.6 | isoTOP-ABPP reactivity Q13526_C113 PIN1 ([9]; 100 μM in situ 231): 3.4 | isoTOP-ABPP reactivity Q9NYL2_C22 MUTK Mitogen-activated protein kinase MLTK ([10]; 100 μM in situ 231): 20.0
SMILES: COc1ccc(C2CC(c3cccs3)=NN2C(=O)CCl)cc1 (stereo not drawn) [compound 4]

isoTOP-ABPP reactivity Q93009_C223 USP7 ([1]; 200 μM, insitu, 231): 20.0 | isoTOP-ABPP reactivity P11216_C326 PYGB ([2]; 200 μM, insitu, 231): 20.0 | isoTOP-ABPP reactivity P10599_C32 TXN ([3]; 200 μM, insitu, 231): 5.9 | isoTOP-ABPP reactivity Q15021_C439 NCAPD2 ([4]; 200 μM, insitu, 231): 0.6 | isoTOP-ABPP reactivity Q9BTA9_0553 WAC ([5]; 200 μM, insitu, 231): 9.6 | isoTOP-ABPP reactivity Q13162_C51 PRDX4 ([6]; 200 μM, insitu, 231): 1.4 | isoTOP-ABPP reactivity P04183_C66 TK1 ([7]; 200 μM, insitu, 231): 2.3 | isoTOP-ABPP reactivity Q99757_C90 TXN2 ([8]; 200 μM, insitu, 231): 4.5 | isoTOP-ABPP reactivity Q13526_C113 PIN1 ([9]; 200 μM, insitu, 231): 2.6 | isoTOP-ABPP reactivity Q9NYL2_C22 MUTK Mitogen-activated protein kinase MLTK ([10]; 200 μM, insitu, 231): 1.4
SMILES: COc1cc2c(cc1OC)CN(C(=O)CCl)CC2 [compound 8]

isoTOP-ABPP ratio Q93009_C223 ([1]; 100 μM in situ 231): 1.0 | isoTOP-ABPP ratio P11216_C326 ([2]; 100 μM in situ 231): 0.8 | isoTOP-ABPP ratio P10599_C32 ([3]; 100 μM in situ 231): 13.0 | isoTOP-ABPP ratio Q15021_C439 ([4]; 100 μM in situ 231): 0.9 | isoTOP-ABPP ratio Q9BTA9_C553 ([5]; 100 μM in situ 231): 1.7 | isoTOP-ABPP ratio Q13162_C51 ([6]; 100 μM in situ 231): 0.9 | isoTOP-ABPP ratio, cysteine P04183_C66 ([7]; 100 μM in situ 231): 0.6 | isoTOP-ABPP ratio Q99757_C90 ([8]; 100 μM in situ 231): 2.7 | isoTOP-ABPP ratio Q13526_C113 ([9]; 100 μM in situ 231): 0.7 | isoTOP-ABPP ratio Q9NYL2_C22 ([10]; 100 μM in situ 231): 0.7
SMILES: Cn1cc(S(=O)(=O)N2CCOCC2)cc1C(=O)NC(=O)CCl [compound 11]
